Earlier results as cited in article PMC10539439 (Pharmacological Reports, 2023).

Columns and labels:
[1] = 5 mg/kg b.w., i.p.; cited from earlier work
[2] = 5 mg/kg b.w., i.p.; cited from earlier work; remark: listed apart in the source
[3] = 5 mg/kg b.w., i.p.; cited from earlier work; remark: listed apart in the source
TAAR1 = biological target: T1, TAAR1 (Homo sapiens, UniProt Q96RJ0); design: method as in PMID 21525407; settings: summary table; cited from earlier work
T1 sequence (Q96RJ0 1-339): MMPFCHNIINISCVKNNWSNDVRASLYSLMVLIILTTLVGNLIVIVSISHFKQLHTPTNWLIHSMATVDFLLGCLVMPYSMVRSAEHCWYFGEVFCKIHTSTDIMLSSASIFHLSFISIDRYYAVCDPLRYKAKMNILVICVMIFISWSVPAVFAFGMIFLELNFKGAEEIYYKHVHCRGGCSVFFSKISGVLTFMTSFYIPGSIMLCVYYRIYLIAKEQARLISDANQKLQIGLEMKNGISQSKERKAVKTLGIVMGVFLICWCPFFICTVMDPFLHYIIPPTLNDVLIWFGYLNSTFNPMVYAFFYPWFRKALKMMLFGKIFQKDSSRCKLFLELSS

For N=C(N)N/N=C/c1c(Cl)cccc1Cl [Guanabenz], the Plasma cholesterol level [1] is given as “↑ [17]”, the Plasma glucose level [1] is given as “↓ [17]” and the Plasma triglyceride level [1] is given as “↓ [17]”. The “Blood pressure after one administration” value [2] was “Change [17]”, the Spontaneous activity [3] was “↓ [17]” and the “Intrinsic activity at TAAR1” value (TAAR1) was “Agonist [48]”.
